# Data taken from patent EP0486958A1, “Physostigmine derivatives” (MEDIOLANUM FARMACEUTICI s.r.l., priority 1990, dated 1992).
# Several values for one entry are separate records, joined by “and”; a condition that tells them apart may be missing. Equal values may be shown once. Read-outs that look alike come from different tables or passages of the source.
# Assays:
# [1] = target: T1, Electric Eel acetylcholinesterase, type V.S. (Electrophorus electricus, UniProt O42275); experiment: Acetylcholinesterase inhibiting activity, test in vitro (Ellman method); type: biochemical; settings: 20 min incubation, 25°C, phosphate buffer pH 8
# T1 construct: purchased Sigma Chemicals type V.S
# Experimental: The acetylcholinesterase activity was determined by the method of Ellman et al. (Ellman, G.L. Courtney, K.D. Andres, V., Featherstone, R.M. A new and rapide colorimetric determination of acetylcholinesterase activity - Biochem. Pharm., 1961, 7, 88).
# The Electric Eel acetylcholinesterase, type V.S. of Sigma Chemicals was employed.
# To determine IC₅₀, the incubation medium consisted of: Ellman reagent (5,5'-Dithiobis-2-nitrobenzoic acid) 100 µl; enzymatic solution (5,5 units/ml) 35 µl; variable concentration inhibitor 50 µl; phosphate buffer (0.1 mol/l; pH 8) 3000 µl. After 20 min. incubation, 20 µl acetylcholine (0.075 mol/l) are added, and the spectrophotomer, with kinetic software and thermostated at 25°C, was read for 3-5 min. At this point the reaction is in the stationary state. The concentrations of the products apt to inhibit by 50% (IC₅₀) the enzyme activity were calculated.
# [2] = tested on: Suiss female rats; experiment: Acute toxicity (LD₅₀); type: in vivo; settings: for acute toxicity lower than the one of physostigmine: relative to physostigmine
# Experimental: (§1) The LD₅₀ acute toxicity of the compounds obtained in Examples 2,3,4 and 6 has evaluated on Suiss female rats.
# (§2) The compounds were administered per os and endovenously to different groups of animals in the form of tatrates dissolved in water. (The endovenous administration provides the highest bio-availability of the products). The results are shown in Table 3, together with the comparison ones obtained employing physostigmine.
# [3] = target: T2, brain acetylcholinesterase (Rattus norvegicus, UniProt P37136); experiment: Brain acetylcholinesterase activity after oral administration to rats (enzymatic dosage, Ellman method on isolated brains); type: in vivo, male CD/SD rats; settings: 50 mg/kg by gastric probe as tartrates in water, vs control group, individual animals; for % Variation of acetylcholinesterase at time 10′: 10′ after treatment; for % Variation of acetylcholinesterase at time 60′: 60′ after treatment; for % Variation of acetylcholinesterase at time 120′: 120′ after treatment
# T2 construct: from tissue; host or cells: brain of male CD/SD rats
# T2 sequence (P37136 32-614): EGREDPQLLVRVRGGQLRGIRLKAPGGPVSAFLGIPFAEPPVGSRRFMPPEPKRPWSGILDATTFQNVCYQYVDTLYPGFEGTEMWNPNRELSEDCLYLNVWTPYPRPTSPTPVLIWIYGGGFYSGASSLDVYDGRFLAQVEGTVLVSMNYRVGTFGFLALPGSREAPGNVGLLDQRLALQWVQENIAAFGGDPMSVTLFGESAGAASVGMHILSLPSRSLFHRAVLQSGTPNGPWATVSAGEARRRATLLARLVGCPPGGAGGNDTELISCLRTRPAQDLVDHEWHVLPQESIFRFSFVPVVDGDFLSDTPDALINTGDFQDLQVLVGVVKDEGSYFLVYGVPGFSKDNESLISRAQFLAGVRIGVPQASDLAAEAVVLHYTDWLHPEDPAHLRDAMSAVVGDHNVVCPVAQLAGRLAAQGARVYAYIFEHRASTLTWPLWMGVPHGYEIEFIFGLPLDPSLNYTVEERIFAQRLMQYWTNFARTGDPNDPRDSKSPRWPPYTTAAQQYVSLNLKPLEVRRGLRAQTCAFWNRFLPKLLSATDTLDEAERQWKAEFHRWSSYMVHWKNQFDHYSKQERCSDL
# Experimental: The effects of the compounds of Examples 2 and 3 on the brain acetylcholinesterase activity of male CD/SD rats evaluation were administered by gastric probe at the dose of 50 mg/kg in the form of tartrates dissolved in water. The rats were previously kept from eating for 18 hrs. One group of rats treated by or with physiological solution served as control. The rats were sacrificed by decapitation at various times after the treatment with the products under examination. On the isolated brains the acetylcholinesterase activity was determined by the Ellman et al. method employed in the "vitro" tests.
# The percentage variation of the acetylcholinesterase activity in the brain of the rats treated by or with the brains of rats treated with physiological solution (control group) was calculated.
# [4] = Acute toxicity (LD₅₀); type: in vivo, Suiss female rats; settings: rat, tartrates dissolved in water
# Experimental: as §1, §2
# [5] = target: acetylcholinesterase (Homo sapiens, UniProt P22303); settings: literature data; cited from earlier work
# [6] = water, iv, endovenous, read-out: LD₅₀ endovenous
# [7] = water, po, oral (per os), read-out: LD₅₀ oral
# T1 sequence (O42275 24-633): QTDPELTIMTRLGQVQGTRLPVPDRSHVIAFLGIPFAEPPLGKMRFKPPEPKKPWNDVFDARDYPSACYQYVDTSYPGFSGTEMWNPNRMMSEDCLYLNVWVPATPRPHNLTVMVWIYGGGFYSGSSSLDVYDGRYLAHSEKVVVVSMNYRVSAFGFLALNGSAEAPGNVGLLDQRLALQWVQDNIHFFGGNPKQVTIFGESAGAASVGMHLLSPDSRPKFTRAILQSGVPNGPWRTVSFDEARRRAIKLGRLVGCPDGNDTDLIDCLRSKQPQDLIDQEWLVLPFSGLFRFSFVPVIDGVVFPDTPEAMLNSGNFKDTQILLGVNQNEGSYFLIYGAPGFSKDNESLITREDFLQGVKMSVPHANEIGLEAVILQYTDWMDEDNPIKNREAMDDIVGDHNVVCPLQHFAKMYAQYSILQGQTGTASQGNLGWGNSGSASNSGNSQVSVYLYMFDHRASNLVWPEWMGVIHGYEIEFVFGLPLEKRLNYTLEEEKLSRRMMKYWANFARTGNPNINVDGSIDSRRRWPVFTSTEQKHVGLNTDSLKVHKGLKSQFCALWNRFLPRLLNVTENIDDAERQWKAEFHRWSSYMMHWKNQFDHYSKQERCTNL
# acetylcholinesterase, sequence (P22303 32-614): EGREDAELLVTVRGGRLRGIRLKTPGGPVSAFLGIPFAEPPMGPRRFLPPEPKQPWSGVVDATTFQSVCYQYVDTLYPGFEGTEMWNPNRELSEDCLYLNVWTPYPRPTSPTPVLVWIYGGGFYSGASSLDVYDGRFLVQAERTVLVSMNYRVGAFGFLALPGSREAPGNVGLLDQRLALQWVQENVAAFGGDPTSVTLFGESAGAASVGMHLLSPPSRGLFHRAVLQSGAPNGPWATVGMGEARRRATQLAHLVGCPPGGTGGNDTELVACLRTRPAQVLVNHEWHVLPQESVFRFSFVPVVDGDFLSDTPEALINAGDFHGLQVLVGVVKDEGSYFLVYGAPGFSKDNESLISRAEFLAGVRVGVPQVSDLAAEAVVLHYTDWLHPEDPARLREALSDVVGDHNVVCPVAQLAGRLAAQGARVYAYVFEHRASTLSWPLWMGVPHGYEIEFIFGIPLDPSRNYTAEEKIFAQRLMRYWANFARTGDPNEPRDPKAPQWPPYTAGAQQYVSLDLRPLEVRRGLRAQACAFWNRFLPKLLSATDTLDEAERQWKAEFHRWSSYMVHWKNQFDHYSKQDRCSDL
Structure (SMILES),IC50 [1],LD₅₀ endovenous ([2]; tartrates dissolved in water),% Variation of acetylcholinesterase at time 10′ [3],% Variation of acetylcholinesterase at time 60′ [3],% Variation of acetylcholinesterase at time 120′ [3],"LD50 [4, 6]","LD50 [4, 7]",acute toxicity lower than the one of physostigmine [2],also measured
"CCCN(C)C(=O)Oc1ccc2c(c1)[C@]1(C)CCN(C)[C@@H]1N2C (relative stereo) [Example 2, 1,2,3,3a,8,8a-hexaydro-1,3a,8-trimethylpyrrol(2,3-b)indol-5-ol(3aS-cis)-N-methyl,N-propylcarbamate (ester)]",1100 nM,>50 mg/kg and <100 mg/kg,–,–,–,–,–,–,"LD₅₀ oral ([2]; oral (per os), tartrates dissolved in water): >100 mg/kg and <150 mg/kg"
"CCCCCN(C)C(=O)Oc1ccc2c(c1)[C@]1(C)CCN(C)[C@@H]1N2C [Example 3, 1,2,3,3a,8,8a-hexahydro-1,3a,8-trimethylpyrrol(2,3-b)indol-5-ol(3aS-cis)-N-methyl,N-pentylcarbamate (ester)]",1900 nM,<100 mg/kg,"-60,1% and -53,8%","-69,6% and -70,9%","-72,0% and -68,0%",> 50 mg/kg,> 178 mg/kg,approximately 100 times,–
"CCCCCCCN(C)C(=O)Oc1ccc2c(c1)[C@]1(C)CCN(C)[C@@H]1N2C [Example 4, 1,2,3,3a,8,8a-hexahydro-1,3a,8-trimethylpyrrol(2,3-b)indol-5-ol (3aS-cis) N-methyl,N-heptylcarbamate (ester)]",3500 nM,<100 mg/kg,"0% and 5,7%","-52,7% and -47,1%","-54,5% and -56,5%",> 50 mg/kg,> 200 mg/kg,approximately 100 times,–
"CN(Cc1ccccc1)C(=O)Oc1ccc2c(c1)[C@]1(C)CCN(C)[C@@H]1N2C [Example 6, 1,2,3,3a,8,8a-hexahydro-1,3a,8-trimethylpyrrol.(2,3-b)indol-5-ol (3aS-cis) N-methyl,N-benzyl carbamate (ester)]",1000 nM,–,–,–,–,< 50 mg/kg,~70 mg/kg,–,–
CNC(=O)Oc1ccc2c(c1)[C@]1(C)CCN(C)[C@@H]1N2C [Physostigmine],–,–,–,–,–,–,–,–,"LD50 ([4]; female, Suiss, in vivo, intravenous, endovenous, read-out: LD₅₀ endovenous): 0.58 mg/kg; LD50 ([4]; female, Suiss, in vivo, po, oral (per os), read-out: LD₅₀ oral): 2.2 mg/kg"
CCN(CC)C(=O)Oc1ccc2c(c1)C1(C)CCN(C)C1N2C (stereo not shown) [diethylphysostigmine],–,–,–,–,–,–,–,–,acetylcholinesterase inhibiting activity [5]: low inhibiting activity
